Data as given in patent US5354862A, “Preparation and the use of halopropargylated cyclic quaternary ammonium compounds as antimicrobial agents” (Rohm and Haas Company, priority 1993, dated 1994).
Like-named read-outs stand apart in the source and are kept apart here.

What was measured:
Experiment in all cases: Broth two-fold serial dilution MIC test
Staphylococcus aureus = type: cell-based, Staphylococcus aureus (ATCC 6538); conditions: Table 2, Saur
How it was run: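 Broth two-fold serial dilution from 500 ppm down to 0.25 ppm, compound delivered from acetone/methanol/water stock, inoculated with standardized cell suspension and incubated at an organism-appropriate temperature. MIC is the lowest concentration giving complete growth inhibition.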

Aspergillus niger = type: cell-based, Aspergillus niger (ATCC 6275); conditions: Table 2, Anig, TSB media
How it was run: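 Two-fold broth serial dilution from 500 ppm down to 0.25 ppm, compound stock in acetone/methanol/water 5:3:2. Vessels inoculated with standardized spore suspension harvested from agar slants, incubated at a species-appropriate temperature, then scored for growth/no growth. MIC is the lowest concentration giving complete growth inhibition.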

Escherichia coli = type: cell-based, Escherichia coli (ATCC 11229); conditions: Table 2, Ecol
How it was run: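 Broth two-fold serial dilutions ran from 500 down to 0.25 ppm, prepared from a stock in acetone/methanol/water (5:3:2). Each tube received a standardized bacterial suspension and was incubated at a temperature suited to the species. MIC is the lowest concentration giving complete growth inhibition.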

Pseudomonas aeruginosa = type: cell-based, Pseudomonas aeruginosa (ATCC 15442); conditions: Table 2, Psae
How it was run: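 Broth two-fold serial dilution MIC (500 to 0.25 ppm) was run against Pseudomonas aeruginosa, with compound from 1% stock in acetone/methanol/water 5:3:2. Vessels inoculated with standardized broth-grown cells were incubated, then scored for growth. MIC is the lowest concentration giving complete growth inhibition.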

[1] = Staphylococcus aureus, M9G media, read-out: MIC
[2] = Staphylococcus aureus, TSB media, read-out: MIC
[3] = Aspergillus niger, read-out: MIC
[4] = Escherichia coli, M9G media, read-out: MIC
[5] = Escherichia coli, TSB media, read-out: MIC
[6] = Pseudomonas aeruginosa, M9G media, read-out: MIC
[7] = Pseudomonas aeruginosa, TSB media, read-out: MIC

Row | SMILES | MIC (Staphylococcus aureus; M9G media) | MIC (Staphylococcus aureus; TSB media) | MIC (Aspergillus niger) | MIC (Escherichia coli; M9G media) | MIC (Escherichia coli; TSB media) | MIC (Pseudomonas aeruginosa; M9G media) | MIC (Pseudomonas aeruginosa; TSB media) | MIC (Staphylococcus aureus; [1]) | MIC (Staphylococcus aureus; [2]) | MIC (Aspergillus niger; [3]) | MIC (Escherichia coli; [4]) | MIC (Escherichia coli; [5]) | MIC (Pseudomonas aeruginosa; [6]) | MIC (Pseudomonas aeruginosa; [7])
1 | CCCCCCCCCCOC(=O)C[N+]1(CC#CI)CCOCC1 [Compound 67, 4-(decyloxycarbonyl)methyl-4-(3-iodopropargyl)-morpholinium benzenesulfonate] | 0.5 ppm | 8 ppm | 125 ppm | 2 ppm | 8 ppm | 125 ppm | 250 ppm |  |  |  |  |  |  | 
2 | CCCCCCCCCCCCOC(=O)C[N+]1(CC#CI)CCOCC1 [Compound 68, 4-(dodecyloxycarbonyl)methyl-4-(3-iodopropargyl)-morpholinium 4-methylbenzenesulfonate] |  |  |  |  |  |  |  | 0.5 µg/mL | 2 µg/mL | 16 µg/mL | 2 µg/mL | 8 µg/mL | 32 µg/mL | 64 µg/mL
3 | CCCCCCCCCCCCCC[N+]1(CC#CI)CCCC1 [Compound 69, 1-tetradecyl-1-(3-iodopropargyl)-pyrrolidinium bromide] | 0.25 ppm | 0.25 ppm | 4 ppm | 1 ppm | 4 ppm | 8 ppm | 32 ppm |  |  |  |  |  |  | 
4 | CCCCCCCCCCOC(=O)C[N+]1(CC#CI)CCCC1 [Compound 70, 1-(decyloxycarbonyl)methyl-1-(3-iodopropargyt)-pyrrolidinium benzenesulfonate] | 1 ppm | 2 ppm | 32 ppm | 2 ppm | 8 ppm | 125 ppm | 250 ppm |  |  |  |  |  |  | 
5 | CCCCCCCCCCCCCC[N+]1(CC#CI)CCOCC1 [Compound 71, 4-tetradecyl-4-(3-iodopropargyl)-morpholinium bromide] | 0.25 ppm | 0.25 ppm | 4 ppm | 1 ppm | 4 ppm | 8 ppm | 32 ppm |  |  |  |  |  |  | 
6 | CCCCCCCCCCCCCC[N+]1(CC#CI)CCOCC1 [Compound 72, 4-tetradecyl-4-(3-iodopropargyl)-rnorpholinium iodide] | 0.25 ppm | 0.25 ppm | 4 ppm | 0.5 ppm | 4 ppm | 16 ppm | 64 ppm |  |  |  |  |  |  | 
7 | IC#CC[N+]1(Cc2ccccc2)CCOCC1 [Compound 73, 4-benzyl-4-(3-iodopropargyi)-morpholinium 4-methylbenzenesulfonate] |  |  |  |  |  |  |  | 125 µg/mL | 250 µg/mL | 125 µg/mL | 125 µg/mL | 125 µg/mL | > 500 µg/mL | > 500 µg/mL
8 | IC#CC[N+]1(Cc2ccccc2)CCOCC1 [Compound 74, 4-benzyl-4-(3-iodopropargyl)-morpholinium methanesulfonate] | 125 ppm | 250 ppm | 64 ppm | 64 ppm | 125 ppm | > 500 ppm | > 500 ppm |  |  |  |  |  |  | 
9 | CCCCCCCCCCCCOC(=O)C[N+]1(CC#CI)CCCC1 [Compound 75, 1-(dodecyloxycarbonyl)methyl-1-(3-iodopropargyl)-pyrrolidinium methanesulfonate] | 0.25 ppm | 2 ppm | 8 ppm | 2 ppm | 8 ppm | 32 ppm | 125 ppm |  |  |  |  |  |  | 
10 | CCCCCCCCCCCCOC(=O)C[N+]1(CC#CI)CCOCC1 [Compound 76, 4-(dodecyloxycarbonyl)methyl-4-(3-iodopropargyl)-morpholinium methanesulfonate] | 0.25 ppm | 2 ppm | 32 ppm | 2 ppm | 8 ppm | 64 ppm | 125 ppm |  |  |  |  |  |  | 
11 | CCCC[N+]1(CC#CI)CCCC1 [Compound 77, 1-n-butyl-1-(3-iodopropargyl)-pyrrolidinium bromide] | 250 ppm | 250 ppm | > 500 ppm | 64 ppm | 64 ppm | > 500 ppm | > 500 ppm |  |  |  |  |  |  | 
12 | CCCCCCCCCC[N+]1(CC#CI)CCCC1 [Compound 78, 1-decyl-1-(3-iodopropargyl)-pyrrolidinium bromide] | 0.25 ppm | 2 ppm | 8 ppm | 2 ppm | 4 ppm | 250 ppm | 500 ppm |  |  |  |  |  |  | 
13 | CCCCCCCCCCCC[N+]1(CC#CI)CCCC1 [Compound 79, 1-dodecyl-1-(3-iodopropargyl)-pyrrolidinium bromide] | 0.25 ppm | 1 ppm | 2 ppm | 1 ppm | 4 ppm | 32 ppm | 64 ppm |  |  |  |  |  |  | 
14 | CCCCCCCCCCCCCCCC[N+]1(CC#CI)CCCC1 [Compound 80, 1-hexadecyl-1-(3-iodopropargyl)-pyrrolidinium bromide] | 0.5 ppm | 0.5 ppm | 1 ppm | 2 ppm | 8 ppm | 16 ppm | 125 ppm |  |  |  |  |  |  | 
15 | CCCCCCOC(=O)CCCCC[N+]1(CC#CI)CCOCC1 [Compound 81] |  |  |  | 64 ppm |  |  |  | 4 µg/mL | 16 µg/mL | 125 µg/mL |  | 64 µg/mL | > 500 µg/mL | > 500 µg/mL
16 | CCCCCCOC(=O)CCCCC[N+]1(CC#CI)CCCC1 [Compound 82, 1-[5-(hexyloxycarbonyl)]pentyl-1-(3-iodopropargyl)-pyrrolidinium 4-methylbenzenesulfonate] |  |  | 125 ppm |  |  |  |  | 2 µg/mL | 8 µg/mL |  | 32 µg/mL | 64 µg/mL | > 500 µg/mL | > 500 µg/mL
17 | CCCCCCOC(=O)CCCCC[N+]1(CC#CI)CCOCC1 [Compound 83, 4-[5-(hexyloxycarbonyl)]pentyl-4-(3-iodopropargyl)-morpholinium methanesulfonate] | 4 ppm | 8 ppm | 125 ppm | 16 ppm | 32 ppm | > 500 ppm | > 500 ppm |  |  |  |  |  |  | 
18 | CCCCCCOC(=O)CCCCC[N+]1(CC#CI)CCCC1 [Compound 84, 1-[5-(hexyloxycarbonyl)]pentyl-1-(3-iodopropargyl)-pyrrolidinium methanesulfonate] | 2 ppm | 8 ppm | 32 ppm | 16 ppm | 32 ppm | > 500 ppm | > 500 ppm |  |  |  |  |  |  | 
19 | CCCCCCCCCCCCCC[N+]1(CC#CI)CCCCC1 [Compound 85, 1-tetradecyl-1-(3-iodoproparygyl)-piperidinium n-butylsulfonate] | 0.25 ppm | 0.25 ppm | 4 ppm | 1 ppm | 4 ppm | 8 ppm | 32 ppm |  |  |  |  |  |  | 
20 | CCCCCCCCCCCCCC[N+]1(CC#CI)CCOCC1 [Compound 86, 4-tetradecyl-4-(3-iodopropargyl)-morpholinium n-butylsulfonate] | 0.5 ppm | 1 ppm | 8 ppm | 2 ppm | 8 ppm | 8 ppm | 32 ppm |  |  |  |  |  |  | 
